Laboratory results as given in BindingDB's records for doi:10.1016/s0960-894x(00)00661-2 (Niddk, 2001).

Molecular target: T1, Corticotropin-releasing factor receptor 1 (Rattus norvegicus, UniProt P35353)
T1 sequence (P35353 whole entry): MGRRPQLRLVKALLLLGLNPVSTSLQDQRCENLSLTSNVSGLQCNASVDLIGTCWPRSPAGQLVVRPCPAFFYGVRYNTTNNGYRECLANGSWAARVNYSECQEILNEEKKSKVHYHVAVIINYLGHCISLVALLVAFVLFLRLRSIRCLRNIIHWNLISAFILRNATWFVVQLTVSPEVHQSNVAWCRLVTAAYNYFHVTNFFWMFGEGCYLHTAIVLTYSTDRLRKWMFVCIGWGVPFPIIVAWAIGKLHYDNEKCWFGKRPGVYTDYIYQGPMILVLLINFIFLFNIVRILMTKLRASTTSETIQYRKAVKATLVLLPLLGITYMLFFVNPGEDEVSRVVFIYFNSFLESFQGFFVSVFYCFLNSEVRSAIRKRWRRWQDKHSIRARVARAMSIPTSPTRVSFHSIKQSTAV
Assay: ChEBML_51283
Description: Binding affinity towards Corticotropin releasing hormone receptor type 1 of rat cerebellum using [125I]Tyr-sauvagine as radioligand.

- Ki: 3 nM
Structure (SMILES): CCC[CH2][Sn]([CH2]CCC)([CH2]CCC)[c]1cc(Cl)c(Nc2nc(C)nc(N(CCC)CC3CC3)c2Cl)c(Cl)c1 [5-Chloro-N-cyclopropylmethyl-N'-(2,6-dichloro-4-tributylstannanyl-phenyl)-2-methyl-N-propyl-pyrimidine-4,6-diamine]
